Assay results published in article PMC12586182 (Frontiers in Oncology, 2025).

Tests used:
Assay in all cases: Kinase panel profiling at 1 µmol/L (mobility shift assay, Carna)
Type in all cases: biochemical
Settings in all cases: 1 µmol/L of BTK inhibitor
CDK9/CycT1 = target: T1, CDK9/CycT1 (Homo sapiens, UniProt P50750)
T1 construct: purchased Carna Biosciences

NuaK2 = target: T2, NuaK2 (Homo sapiens, UniProt Q9H093)
T2 construct: purchased Carna Biosciences
T2 sequence (Q9H093 1-628): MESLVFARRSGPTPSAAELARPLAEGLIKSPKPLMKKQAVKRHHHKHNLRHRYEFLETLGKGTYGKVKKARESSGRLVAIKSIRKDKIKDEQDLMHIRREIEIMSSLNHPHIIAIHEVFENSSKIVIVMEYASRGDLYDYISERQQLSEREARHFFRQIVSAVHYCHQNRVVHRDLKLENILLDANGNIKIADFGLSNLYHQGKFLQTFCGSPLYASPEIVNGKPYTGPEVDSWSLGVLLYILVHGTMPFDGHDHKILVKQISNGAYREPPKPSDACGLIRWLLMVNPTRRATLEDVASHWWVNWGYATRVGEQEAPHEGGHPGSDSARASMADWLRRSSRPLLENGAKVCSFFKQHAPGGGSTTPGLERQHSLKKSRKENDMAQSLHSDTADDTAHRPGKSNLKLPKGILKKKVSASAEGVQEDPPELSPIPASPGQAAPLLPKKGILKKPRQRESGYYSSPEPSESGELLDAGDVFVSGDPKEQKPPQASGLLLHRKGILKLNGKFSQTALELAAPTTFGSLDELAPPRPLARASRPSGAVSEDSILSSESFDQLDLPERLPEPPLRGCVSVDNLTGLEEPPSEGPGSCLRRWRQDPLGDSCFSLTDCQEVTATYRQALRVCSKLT

TNIK = target: T3, TNIK (Homo sapiens, UniProt Q9UKE5)
T3 construct: purchased Carna Biosciences

AKT3 = target: T4, AKT3 (Homo sapiens, UniProt Q9Y243)
T4 construct: purchased Carna Biosciences

RSK3 = target: T5, RSK3 (Homo sapiens, UniProt Q15349)
T5 construct: purchased Carna Biosciences

DYRK3 = target: T6, DYRK3 (Homo sapiens, UniProt O43781)
T6 construct: purchased Carna Biosciences
T6 sequence (O43781 1-588): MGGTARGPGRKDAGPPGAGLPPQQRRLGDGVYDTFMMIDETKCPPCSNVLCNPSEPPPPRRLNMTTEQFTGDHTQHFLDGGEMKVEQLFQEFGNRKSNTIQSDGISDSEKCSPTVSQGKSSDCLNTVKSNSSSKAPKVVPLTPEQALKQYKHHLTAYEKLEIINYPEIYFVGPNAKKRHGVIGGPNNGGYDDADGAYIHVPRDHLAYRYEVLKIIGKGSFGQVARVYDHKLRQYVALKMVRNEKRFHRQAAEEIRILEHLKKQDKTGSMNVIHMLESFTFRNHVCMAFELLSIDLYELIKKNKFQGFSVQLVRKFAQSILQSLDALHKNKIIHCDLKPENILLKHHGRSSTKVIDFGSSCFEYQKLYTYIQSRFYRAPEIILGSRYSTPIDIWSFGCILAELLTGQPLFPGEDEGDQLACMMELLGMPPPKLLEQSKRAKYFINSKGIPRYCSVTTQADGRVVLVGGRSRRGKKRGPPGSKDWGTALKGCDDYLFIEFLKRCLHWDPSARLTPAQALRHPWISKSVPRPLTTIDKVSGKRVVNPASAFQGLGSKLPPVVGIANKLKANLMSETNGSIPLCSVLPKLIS

CaMK2α = target: T7, CaMK2α (Homo sapiens, UniProt Q9UQM7)
T7 construct: purchased Carna Biosciences

PAK2 = target: T8, PAK2 (Homo sapiens, UniProt Q13177)
T8 construct: purchased Carna Biosciences

BRSK1 = target: T9, BRSK1 (Homo sapiens, UniProt Q8TDC3)
T9 construct: purchased Carna Biosciences
T9 sequence (Q8TDC3 1-778): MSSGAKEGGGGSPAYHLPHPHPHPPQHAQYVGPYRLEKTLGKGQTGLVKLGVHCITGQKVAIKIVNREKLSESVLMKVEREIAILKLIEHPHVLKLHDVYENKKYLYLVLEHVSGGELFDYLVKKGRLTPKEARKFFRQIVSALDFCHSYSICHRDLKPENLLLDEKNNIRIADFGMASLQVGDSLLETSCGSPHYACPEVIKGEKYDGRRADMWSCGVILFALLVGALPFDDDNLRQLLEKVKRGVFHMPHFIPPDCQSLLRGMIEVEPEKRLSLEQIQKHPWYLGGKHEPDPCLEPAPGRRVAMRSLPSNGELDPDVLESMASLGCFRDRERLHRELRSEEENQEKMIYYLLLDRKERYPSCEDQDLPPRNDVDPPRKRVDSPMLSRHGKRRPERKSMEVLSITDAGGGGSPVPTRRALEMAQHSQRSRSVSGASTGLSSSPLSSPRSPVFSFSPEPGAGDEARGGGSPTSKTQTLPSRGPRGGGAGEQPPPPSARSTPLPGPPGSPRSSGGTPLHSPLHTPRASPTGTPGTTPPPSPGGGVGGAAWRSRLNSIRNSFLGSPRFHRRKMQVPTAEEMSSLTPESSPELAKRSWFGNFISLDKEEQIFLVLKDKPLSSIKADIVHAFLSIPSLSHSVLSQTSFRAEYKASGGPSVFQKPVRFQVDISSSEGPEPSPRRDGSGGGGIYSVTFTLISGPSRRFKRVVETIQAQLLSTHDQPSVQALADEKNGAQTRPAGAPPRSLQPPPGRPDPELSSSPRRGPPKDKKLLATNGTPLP

DDR1 = target: T10, DDR1 (Homo sapiens, UniProt Q08345)
T10 construct: purchased Carna Biosciences

PAK5 = target: T11, PAK5 (Homo sapiens, UniProt Q9P286)
T11 construct: purchased Carna Biosciences

AurA = target: T12, AurA (Homo sapiens, UniProt O14965)
T12 construct: purchased Carna Biosciences
T12 sequence (O14965 1-403): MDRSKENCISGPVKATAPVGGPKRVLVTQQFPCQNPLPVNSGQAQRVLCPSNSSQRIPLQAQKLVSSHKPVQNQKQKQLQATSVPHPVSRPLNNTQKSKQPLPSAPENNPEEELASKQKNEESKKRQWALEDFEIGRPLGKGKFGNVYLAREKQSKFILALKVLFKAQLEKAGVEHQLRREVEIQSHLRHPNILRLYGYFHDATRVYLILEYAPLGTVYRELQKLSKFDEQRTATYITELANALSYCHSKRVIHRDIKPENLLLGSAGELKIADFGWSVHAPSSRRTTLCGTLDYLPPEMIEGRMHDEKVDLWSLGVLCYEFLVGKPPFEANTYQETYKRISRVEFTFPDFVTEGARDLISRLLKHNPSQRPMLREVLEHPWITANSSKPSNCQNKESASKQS

T4 sequence (Q9Y243 whole entry): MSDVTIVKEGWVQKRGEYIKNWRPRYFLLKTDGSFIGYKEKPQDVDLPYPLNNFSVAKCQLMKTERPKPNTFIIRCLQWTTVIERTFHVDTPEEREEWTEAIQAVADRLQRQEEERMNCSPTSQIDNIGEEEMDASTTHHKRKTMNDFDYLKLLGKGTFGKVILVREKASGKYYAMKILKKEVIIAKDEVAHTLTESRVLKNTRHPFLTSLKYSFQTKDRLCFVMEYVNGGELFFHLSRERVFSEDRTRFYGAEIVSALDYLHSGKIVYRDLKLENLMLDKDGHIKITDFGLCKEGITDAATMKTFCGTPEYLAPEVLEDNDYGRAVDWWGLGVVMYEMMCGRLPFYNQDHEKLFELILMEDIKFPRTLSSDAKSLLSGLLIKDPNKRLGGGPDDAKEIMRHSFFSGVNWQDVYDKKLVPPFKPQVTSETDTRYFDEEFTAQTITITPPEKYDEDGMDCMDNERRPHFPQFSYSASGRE
T10 sequence (Q08345 19-913): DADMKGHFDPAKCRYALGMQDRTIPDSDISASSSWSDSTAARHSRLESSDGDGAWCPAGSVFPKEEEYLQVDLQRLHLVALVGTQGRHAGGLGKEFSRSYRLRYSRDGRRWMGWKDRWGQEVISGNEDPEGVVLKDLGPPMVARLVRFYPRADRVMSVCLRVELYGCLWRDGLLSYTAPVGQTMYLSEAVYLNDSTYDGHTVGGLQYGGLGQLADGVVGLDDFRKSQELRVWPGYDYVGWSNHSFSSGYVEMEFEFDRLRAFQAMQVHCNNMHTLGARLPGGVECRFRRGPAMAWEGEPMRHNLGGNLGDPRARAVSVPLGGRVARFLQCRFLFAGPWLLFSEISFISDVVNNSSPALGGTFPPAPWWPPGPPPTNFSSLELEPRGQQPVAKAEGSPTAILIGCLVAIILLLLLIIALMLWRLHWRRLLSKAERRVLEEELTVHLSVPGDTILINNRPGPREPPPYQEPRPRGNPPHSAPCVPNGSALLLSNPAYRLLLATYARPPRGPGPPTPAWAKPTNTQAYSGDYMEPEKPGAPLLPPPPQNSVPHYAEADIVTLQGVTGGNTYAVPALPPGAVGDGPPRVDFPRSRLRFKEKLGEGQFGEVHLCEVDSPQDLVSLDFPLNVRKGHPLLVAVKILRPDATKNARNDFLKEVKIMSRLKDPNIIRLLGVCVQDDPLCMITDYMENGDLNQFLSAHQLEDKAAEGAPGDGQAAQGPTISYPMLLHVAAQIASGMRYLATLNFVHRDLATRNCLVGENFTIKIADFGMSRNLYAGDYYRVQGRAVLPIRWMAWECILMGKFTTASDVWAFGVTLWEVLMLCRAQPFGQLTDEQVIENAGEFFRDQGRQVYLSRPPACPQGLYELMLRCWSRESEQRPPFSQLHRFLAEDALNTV
T5 sequence (Q15349 whole entry): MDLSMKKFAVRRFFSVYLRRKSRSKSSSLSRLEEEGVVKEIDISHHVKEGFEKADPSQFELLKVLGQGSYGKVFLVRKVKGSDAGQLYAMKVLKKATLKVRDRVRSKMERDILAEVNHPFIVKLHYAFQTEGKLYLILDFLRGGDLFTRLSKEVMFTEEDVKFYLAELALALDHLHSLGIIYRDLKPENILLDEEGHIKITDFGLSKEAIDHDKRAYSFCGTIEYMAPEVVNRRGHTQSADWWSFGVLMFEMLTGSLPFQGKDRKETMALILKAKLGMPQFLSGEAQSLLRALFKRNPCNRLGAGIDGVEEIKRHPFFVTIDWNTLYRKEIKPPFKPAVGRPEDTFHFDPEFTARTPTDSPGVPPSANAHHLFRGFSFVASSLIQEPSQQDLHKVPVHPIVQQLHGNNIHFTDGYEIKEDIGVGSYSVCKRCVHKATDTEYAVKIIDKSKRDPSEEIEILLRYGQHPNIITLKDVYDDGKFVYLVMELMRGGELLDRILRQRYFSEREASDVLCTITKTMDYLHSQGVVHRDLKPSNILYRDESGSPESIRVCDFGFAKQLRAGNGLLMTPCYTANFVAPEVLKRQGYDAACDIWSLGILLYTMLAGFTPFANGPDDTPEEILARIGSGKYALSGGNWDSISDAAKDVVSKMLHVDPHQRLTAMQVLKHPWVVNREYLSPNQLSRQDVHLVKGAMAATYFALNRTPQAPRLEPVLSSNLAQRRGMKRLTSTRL
T1 sequence (P50750 whole entry): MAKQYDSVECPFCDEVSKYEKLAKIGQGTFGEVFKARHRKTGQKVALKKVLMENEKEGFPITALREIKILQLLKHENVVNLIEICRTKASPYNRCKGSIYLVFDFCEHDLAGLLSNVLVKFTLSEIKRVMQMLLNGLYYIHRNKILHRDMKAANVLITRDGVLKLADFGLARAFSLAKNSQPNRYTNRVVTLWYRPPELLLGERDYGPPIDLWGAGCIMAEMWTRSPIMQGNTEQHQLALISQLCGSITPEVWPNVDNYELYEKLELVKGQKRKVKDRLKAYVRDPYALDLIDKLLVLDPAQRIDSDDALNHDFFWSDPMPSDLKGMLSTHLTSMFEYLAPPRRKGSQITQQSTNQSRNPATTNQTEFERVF
T1 sequence (O60563 whole entry partner): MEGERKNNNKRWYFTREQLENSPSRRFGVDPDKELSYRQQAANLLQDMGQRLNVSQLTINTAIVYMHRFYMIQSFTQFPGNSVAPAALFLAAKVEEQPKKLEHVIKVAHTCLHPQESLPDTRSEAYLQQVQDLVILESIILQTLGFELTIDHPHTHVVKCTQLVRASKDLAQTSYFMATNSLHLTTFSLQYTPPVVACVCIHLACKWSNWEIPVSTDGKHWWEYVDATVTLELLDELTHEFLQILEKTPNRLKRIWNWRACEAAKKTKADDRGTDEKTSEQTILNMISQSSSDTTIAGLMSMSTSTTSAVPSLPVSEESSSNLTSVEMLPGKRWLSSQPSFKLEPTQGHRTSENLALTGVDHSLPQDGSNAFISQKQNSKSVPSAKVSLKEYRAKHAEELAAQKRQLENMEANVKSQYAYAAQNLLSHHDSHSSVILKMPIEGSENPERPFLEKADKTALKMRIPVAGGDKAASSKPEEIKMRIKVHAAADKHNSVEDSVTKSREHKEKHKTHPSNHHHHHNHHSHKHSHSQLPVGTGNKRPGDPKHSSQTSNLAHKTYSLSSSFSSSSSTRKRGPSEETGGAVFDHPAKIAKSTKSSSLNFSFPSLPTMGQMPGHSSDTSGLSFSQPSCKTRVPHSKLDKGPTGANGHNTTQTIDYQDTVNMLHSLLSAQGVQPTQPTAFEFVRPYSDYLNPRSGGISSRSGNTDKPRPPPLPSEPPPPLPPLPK
T7 sequence (Q9UQM7 whole entry): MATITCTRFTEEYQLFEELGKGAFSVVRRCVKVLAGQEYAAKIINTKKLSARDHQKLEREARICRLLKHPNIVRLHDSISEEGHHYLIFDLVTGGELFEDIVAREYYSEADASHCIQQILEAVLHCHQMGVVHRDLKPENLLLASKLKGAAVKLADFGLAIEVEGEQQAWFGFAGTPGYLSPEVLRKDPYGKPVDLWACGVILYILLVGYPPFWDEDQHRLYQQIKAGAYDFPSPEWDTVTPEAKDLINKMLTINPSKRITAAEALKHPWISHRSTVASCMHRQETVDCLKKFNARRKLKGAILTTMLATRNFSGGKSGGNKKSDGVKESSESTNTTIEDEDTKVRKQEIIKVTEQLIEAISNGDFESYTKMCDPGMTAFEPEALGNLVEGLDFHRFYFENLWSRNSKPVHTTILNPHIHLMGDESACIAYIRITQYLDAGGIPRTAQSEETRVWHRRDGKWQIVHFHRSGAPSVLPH
T8 sequence (Q13177 whole entry): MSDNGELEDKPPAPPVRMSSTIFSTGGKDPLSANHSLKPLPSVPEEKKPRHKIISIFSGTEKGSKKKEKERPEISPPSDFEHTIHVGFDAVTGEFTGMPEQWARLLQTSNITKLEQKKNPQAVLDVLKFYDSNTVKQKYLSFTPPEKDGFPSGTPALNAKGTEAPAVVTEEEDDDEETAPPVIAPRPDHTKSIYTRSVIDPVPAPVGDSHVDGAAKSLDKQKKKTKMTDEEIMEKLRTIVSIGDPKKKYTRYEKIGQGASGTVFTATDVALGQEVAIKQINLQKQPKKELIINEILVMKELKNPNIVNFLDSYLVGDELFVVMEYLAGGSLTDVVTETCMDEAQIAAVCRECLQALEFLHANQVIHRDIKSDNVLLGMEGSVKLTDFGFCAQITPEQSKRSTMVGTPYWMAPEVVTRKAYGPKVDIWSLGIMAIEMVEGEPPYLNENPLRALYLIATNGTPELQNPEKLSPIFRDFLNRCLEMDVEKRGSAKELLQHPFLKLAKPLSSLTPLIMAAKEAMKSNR
T11 sequence (Q9P286 whole entry): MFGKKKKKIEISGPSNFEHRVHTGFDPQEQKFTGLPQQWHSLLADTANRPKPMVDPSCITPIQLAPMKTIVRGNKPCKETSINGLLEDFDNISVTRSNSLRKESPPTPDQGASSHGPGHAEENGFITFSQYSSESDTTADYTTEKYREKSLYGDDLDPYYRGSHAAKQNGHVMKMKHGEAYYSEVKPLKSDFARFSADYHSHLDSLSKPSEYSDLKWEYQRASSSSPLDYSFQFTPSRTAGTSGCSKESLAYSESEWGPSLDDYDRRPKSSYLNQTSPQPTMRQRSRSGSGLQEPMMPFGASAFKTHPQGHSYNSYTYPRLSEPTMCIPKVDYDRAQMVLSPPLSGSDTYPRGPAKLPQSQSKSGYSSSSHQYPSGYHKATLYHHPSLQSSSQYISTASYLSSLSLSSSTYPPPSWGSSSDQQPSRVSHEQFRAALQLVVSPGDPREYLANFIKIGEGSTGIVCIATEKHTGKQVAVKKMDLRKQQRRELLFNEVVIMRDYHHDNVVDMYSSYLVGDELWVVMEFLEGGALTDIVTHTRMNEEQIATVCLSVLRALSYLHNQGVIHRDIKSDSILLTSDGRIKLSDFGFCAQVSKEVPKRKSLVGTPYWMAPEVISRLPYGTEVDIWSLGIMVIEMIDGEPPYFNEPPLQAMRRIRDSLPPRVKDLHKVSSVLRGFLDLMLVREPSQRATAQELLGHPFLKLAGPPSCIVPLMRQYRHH

| Compound | Percentage inhibition of kinase enzyme activity (CDK9/CycT1) [%] | Percentage inhibition of kinase enzyme activity (NuaK2) [%] | Percentage inhibition of kinase enzyme activity (TNIK) [%] | Percentage inhibition of kinase enzyme activity (AKT3) [%] | Percentage inhibition of kinase enzyme activity (RSK3) [%] | Percentage inhibition of kinase enzyme activity (DYRK3) [%] | Percentage inhibition of kinase enzyme activity (CaMK2α) [%] | Percentage inhibition of kinase enzyme activity (PAK2) [%] | Percentage inhibition of kinase enzyme activity (BRSK1) [%] | Percentage inhibition of kinase enzyme activity (DDR1) [%] | Percentage inhibition of kinase enzyme activity (PAK5) [%] | Percentage inhibition of kinase enzyme activity (AurA) [%] |
| --- | --- | --- | --- | --- | --- | --- | --- | --- | --- | --- | --- | --- |
| CC#CC(=O)N1CCC[C@H]1c1nc(-c2ccc(C(=O)Nc3ccccn3)cc2)c2c(N)nccn12 [acalabrutinib] | 15.27 | 3.11 | -0.81 | -4.92 | 1.13 | 0.35 | -3.43 | -5.20 | -1.79 | 7.80 | -0.37 | 2.34 |
| C=CC(=O)N1CCC[C@@H](n2nc(-c3ccc(Oc4ccccc4)cc3)c3c(N)ncnc32)C1 [ibrutinib] | – | 6.37 | -1.62 | -2.25 | 8.80 | -3.93 | -1.35 | -5.81 | -7.32 | 37.17 | 12.42 | 29.84 |
| O=C(c1ccc(Oc2ccccc2)cc1Cl)c1c[nH]c2ncnc(N[C@@H]3CC[C@@H](CO)OC3)c12 [nemtabrutinib] | -0.08 | 24.70 | 85.96 | 9.45 | 19.54 | -5.63 | 2.91 | 93.68 | 12.83 | 93.81 | 66.81 | 77.82 |
| COc1ccc(F)cc1C(=O)NCc1ccc(-c2nn([C@@H](C)C(F)(F)F)c(N)c2C(N)=O)cc1 [pirtobrutinib] | -6.41 | -0.23 | -3.38 | -2.20 | 1.65 | 7.54 | -0.99 | 8.29 | 3.44 | 2.52 | -1.30 | 27.17 |
| C=CC(=O)N1CCC([C@@H]2CCNc3c(C(N)=O)c(-c4ccc(Oc5ccccc5)cc4)nn32)CC1 [zanubrutinib] | – | – | – | – | – | – | – | 9.82 | – | – | – | – |
